Test results as given in patent publication US9738634B2, “Heterocyclic amide compound and herbicide” (SYNGENTA PARTICIPATIONS AG, priority 2013, dated 2017).

Assays:
Type in all cases: in vivo
Conditions in all cases: treatment dosage 320 g/ha
[1] = tested on: bulrush; test: Test Example 2: weedkilling efficacy, growth period weed treatment in the submerged state; B: bulrush
In short: (§1)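 Barnyard grass, bulrush and oval-leafed pondweed sown in alluvial soil under 4 cm flooding, greenhouse 25 to 30° C. At 1-2 leaf stage, water-diluted emulsion applied to the water surface at stated g/ha dosages; effects scored 3 weeks later.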

[2] = tested on: rapeseed; test: Test Example 4: foliar treatment, effect on crop; g: rapeseed
In short: (§2)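 Seeds are spot-sown into sterilized diluvial soil and covered with about 1.5 cm of soil. After 14 days' greenhouse growth at 25 to 30° C, plants are sprayed on stems and leaves with diluted emulsion at the stated g/ha rate, then scored at 3 weeks.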

[3] = tested on: rapeseed; test: Test Example 3: soil treatment, effect on crop; g: rapeseed
In short: (§3)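 Crop and weed responses were judged three weeks after a uniform surface spray of the water-diluted emulsion at the given g/ha rate. Seeds sat beneath about 1.5 cm of sterilized diluvial soil, and boxes stood in a greenhouse at 25 to 30° C.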

[4] = tested on: crabgrass; test: Test Example 4: weedkilling efficacy by foliar treatment; D: crabgrass
In short: as §2

[5] = tested on: corn; test: Test Example 4: foliar treatment, effect on crop; c: corn
In short: as §2

[6] = tested on: Indian mallow; test: Test Example 3: weedkilling efficacy through soil treatment; K: Indian mallow
In short: as §3

[7] = tested on: redroot pigweed; test: Test Example 4: weedkilling efficacy by foliar treatment; L: redroot pigweed
In short: as §2

[8] = tested on: birds-eye speedwell; test: Test Example 3: weedkilling efficacy through soil treatment; p: birds-eye speedwell
In short: as §3

[9] = tested on: wild oat; test: Test Example 3: weedkilling efficacy through soil treatment; G: wild oat
In short: as §3

[10] = tested on: fig-leafed goosefoot; test: Test Example 4: weedkilling efficacy by foliar treatment; M: fig-leafed goosefoot
In short: as §2

[11] = tested on: fig-leafed goosefoot; test: Test Example 3: weedkilling efficacy through soil treatment; M: fig-leafed goosefoot
In short: as §3

[12] = tested on: green foxtail; test: Test Example 4: weedkilling efficacy by foliar treatment; E: green foxtail
In short: as §2

[13] = tested on: directly sown rice; test: Test Example 3: soil treatment, effect on crop; b: directly sown rice
In short: as §3

[14] = tested on: barnyard grass; test: Test Example 2: weedkilling efficacy, growth period weed treatment in the submerged state; A: barnyard grass
In short: as §1

[15] = tested on: crabgrass; test: Test Example 3: weedkilling efficacy through soil treatment; D: crabgrass
In short: as §3

[16] = tested on: common wind-grass; test: Test Example 4: weedkilling efficacy by foliar treatment; J: common wind-grass
In short: as §2

[17] = tested on: common wind-grass; test: Test Example 3: weedkilling efficacy through soil treatment; J: common wind-grass
In short: as §3

[18] = tested on: bulrush; test: Test Example 1: weedkilling efficacy, preemergent weed treatment in the submerged state; B: bulrush
In short: (§4)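 Pots of alluvial soil flooded 4 cm deep, sown with barnyard grass, bulrush and oval-leafed pondweed and transplanted with 2.5-leaf rice. Emulsified compound applied to the water surface on sowing day at stated g/ha; greenhouse 25–30 °C, effects assessed 3 weeks after treatment.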

[19] = tested on: Indian mallow; test: Test Example 4: weedkilling efficacy by foliar treatment; K: Indian mallow
In short: as §2

[20] = tested on: green foxtail; test: Test Example 3: weedkilling efficacy through soil treatment; E: green foxtail
In short: as §3

[21] = tested on: wheat; test: Test Example 4: foliar treatment, effect on crop; e: wheat
In short: as §2

[22] = tested on: chickweed; test: Test Example 3: weedkilling efficacy through soil treatment; N: chickweed
In short: as §3

[23] = tested on: catchweed; test: Test Example 4: weedkilling efficacy by foliar treatment; O: catchweed
In short: as §2

[24] = tested on: beet; test: Test Example 4: foliar treatment, effect on crop; f: beet
In short: as §2

[25] = tested on: wheat; test: Test Example 3: soil treatment, effect on crop; e: wheat
In short: as §3

[26] = tested on: corn; test: Test Example 3: soil treatment, effect on crop; c: corn
In short: as §3

[27] = tested on: redroot pigweed; test: Test Example 3: weedkilling efficacy through soil treatment; L: redroot pigweed
In short: as §3

[28] = tested on: oval-leafed pondweed; test: Test Example 1: weedkilling efficacy, preemergent weed treatment in the submerged state; C: oval-leafed pondweed
In short: as §4

[29] = tested on: black-grass; test: Test Example 4: weedkilling efficacy by foliar treatment; H: black-grass
In short: as §2

[30] = tested on: soybean; test: Test Example 3: soil treatment, effect on crop; d: soybean
In short: as §3

[31] = tested on: Italian ryegrass; test: Test Example 4: weedkilling efficacy by foliar treatment; I: Italian ryegrass
In short: as §2

[32] = tested on: catchweed; test: Test Example 3: weedkilling efficacy through soil treatment; O: catchweed
In short: as §3

[33] = tested on: transplanted rice; test: Test Example 1: preemergent weed treatment in the submerged state, effect on crop; a: transplanted rice
In short: as §4

[34] = tested on: Italian ryegrass; test: Test Example 3: weedkilling efficacy through soil treatment; I: Italian ryegrass
In short: as §3

[35] = tested on: black-grass; test: Test Example 3: weedkilling efficacy through soil treatment; H: black-grass
In short: as §3

[36] = tested on: chickweed; test: Test Example 4: weedkilling efficacy by foliar treatment; N: chickweed
In short: as §2

[37] = tested on: oval-leafed pondweed; test: Test Example 2: weedkilling efficacy, growth period weed treatment in the submerged state; C: oval-leafed pondweed
In short: as §1

[38] = tested on: barnyard grass; test: Test Example 4: weedkilling efficacy by foliar treatment; F: barnyard grass
In short: as §2

[39] = tested on: directly sown rice; test: Test Example 4: foliar treatment, effect on crop; b: directly sown rice
In short: as §2

[40] = tested on: soybean; test: Test Example 4: foliar treatment, effect on crop; d: soybean
In short: as §2

[41] = tested on: barnyard grass; test: Test Example 1: weedkilling efficacy, preemergent weed treatment in the submerged state; A: barnyard grass
In short: as §4

[42] = tested on: barnyard grass; test: Test Example 3: weedkilling efficacy through soil treatment; F: barnyard grass
In short: as §3

[43] = tested on: wild oat; test: Test Example 4: weedkilling efficacy by foliar treatment; G: wild oat
In short: as §2

[44] = tested on: beet; test: Test Example 3: soil treatment, effect on crop; f: beet
In short: as §3

Question: `CC1=C(c2cccnc2F)C(=O)N(C(C)(C)C(=O)Nc2cc(Cl)cc(Br)n2)CO1` [B-2-12] was tested. Which “B (bulrush) weedkilling efficacy grade” value [1] did it give?
Answer: 5 (weed kill ratio 90% or more, (practically complete withering))

Question: And the “g (rapeseed) effect on crop grade” value [2]?
Answer: 4 (weed kill ratio 70% or more, less than 90%)

Question: What about the “g (rapeseed) effect on crop grade” value [3] of the same compound?
Answer: 0 (weed kill ratio 5% or less (practically no effect))

Question: And the “D (crabgrass) weedkilling efficacy grade” value [4]?
Answer: 5 (weed kill ratio 90% or more, (practically complete withering))

Question: And the “c (corn) effect on crop grade” value [5]?
Answer: 4 (weed kill ratio 70% or more, less than 90%)

Question: And the “K (Indian mallow) weedkilling efficacy grade” value [6]?
Answer: 0 (weed kill ratio 5% or less (practically no effect))

Question: What about the “L (redroot pigweed) weedkilling efficacy grade” value [7] of the same compound?
Answer: 4 (weed kill ratio 70% or more, less than 90%)

Question: And the “P (birds-eye speedwell) weedkilling efficacy grade” value [8]?
Answer: 4 (weed kill ratio 70% or more, less than 90%)

Question: And the “G (wild oat) weedkilling efficacy grade” value [9]?
Answer: 1 (weed kill ratio 5% or more, less than 20%)

Question: And the “M (fig-leafed goosefoot) weedkilling efficacy grade” value [10]?
Answer: 4 (weed kill ratio 70% or more, less than 90%)

Question: And the “M (fig-leafed goosefoot) weedkilling efficacy grade” value [11]?
Answer: 3 (weed kill ratio 40% or more, less than 70%)

Question: And the “E (green foxtail) weedkilling efficacy grade” value [12]?
Answer: 5 (weed kill ratio 90% or more, (practically complete withering))

Question: What about the “b (directly sown rice) effect on crop grade” value [13] of the same compound?
Answer: 3 (weed kill ratio 40% or more, less than 70%)

Question: And the “A (barnyard grass) weedkilling efficacy grade” value [14]?
Answer: 5 (weed kill ratio 90% or more, (practically complete withering))

Question: And the “D (crabgrass) weedkilling efficacy grade” value [15]?
Answer: 5 (weed kill ratio 90% or more, (practically complete withering))

Question: What about the “J (common wind-grass) weedkilling efficacy grade” value [16] of the same compound?
Answer: 5 (weed kill ratio 90% or more, (practically complete withering))

Question: What about the “J (common wind-grass) weedkilling efficacy grade” value [17] of the same compound?
Answer: 5 (weed kill ratio 90% or more, (practically complete withering))

Question: And the “B (bulrush) weedkilling efficacy grade” value [18]?
Answer: 5 (weed kill ratio 90% or more, (practically complete withering))

Question: And the “K (Indian mallow) weedkilling efficacy grade” value [19]?
Answer: 5 (weed kill ratio 90% or more, (practically complete withering))

Question: And the “E (green foxtail) weedkilling efficacy grade” value [20]?
Answer: 5 (weed kill ratio 90% or more, (practically complete withering))

Question: What about the “e (wheat) effect on crop grade” value [21] of the same compound?
Answer: 0 (weed kill ratio 5% or less (practically no effect))

Question: And the “N (chickweed) weedkilling efficacy grade” value [22]?
Answer: 4 (weed kill ratio 70% or more, less than 90%)

Question: And the “O (catchweed) weedkilling efficacy grade” value [23]?
Answer: 4 (weed kill ratio 70% or more, less than 90%)

Question: What about the “f (beet) effect on crop grade” value [24] of the same compound?
Answer: 4 (weed kill ratio 70% or more, less than 90%)

Question: What about the “e (wheat) effect on crop grade” value [25] of the same compound?
Answer: 0 (weed kill ratio 5% or less (practically no effect))

Question: What about the “c (corn) effect on crop grade” value [26] of the same compound?
Answer: 0 (weed kill ratio 5% or less (practically no effect))

Question: What about the “L (redroot pigweed) weedkilling efficacy grade” value [27] of the same compound?
Answer: 0 (weed kill ratio 5% or less (practically no effect))

Question: And the “C (oval-leafed pondweed) weedkilling efficacy grade” value [28]?
Answer: 5 (weed kill ratio 90% or more, (practically complete withering))

Question: What about the “H (black-grass) weedkilling efficacy grade” value [29] of the same compound?
Answer: 5 (weed kill ratio 90% or more, (practically complete withering))

Question: What about the “d (soybean) effect on crop grade” value [30] of the same compound?
Answer: 0 (weed kill ratio 5% or less (practically no effect))

Question: And the “I (Italian ryegrass) weedkilling efficacy grade” value [31]?
Answer: 5 (weed kill ratio 90% or more, (practically complete withering))

Question: And the “O (catchweed) weedkilling efficacy grade” value [32]?
Answer: 2 (weed kill ratio 20% or more, less than 40%)

Question: What about the “a (transplanted rice) effect on crop grade” value [33] of the same compound?
Answer: 5 (weed kill ratio 90% or more, (practically complete withering))

Question: What about the “I (Italian ryegrass) weedkilling efficacy grade” value [34] of the same compound?
Answer: 5 (weed kill ratio 90% or more, (practically complete withering))

Question: What about the “H (black-grass) weedkilling efficacy grade” value [35] of the same compound?
Answer: 5 (weed kill ratio 90% or more, (practically complete withering))

Question: And the “N (chickweed) weedkilling efficacy grade” value [36]?
Answer: 4 (weed kill ratio 70% or more, less than 90%)

Question: What about the “C (oval-leafed pondweed) weedkilling efficacy grade” value [37] of the same compound?
Answer: 5 (weed kill ratio 90% or more, (practically complete withering))

Question: What about the “F (barnyard grass) weedkilling efficacy grade” value [38] of the same compound?
Answer: 5 (weed kill ratio 90% or more, (practically complete withering))

Question: And the “b (directly sown rice) effect on crop grade” value [39]?
Answer: 5 (weed kill ratio 90% or more, (practically complete withering))

Question: And the “d (soybean) effect on crop grade” value [40]?
Answer: 4 (weed kill ratio 70% or more, less than 90%)

Question: And the “A (barnyard grass) weedkilling efficacy grade” value [41]?
Answer: 5 (weed kill ratio 90% or more, (practically complete withering))

Question: What about the “F (barnyard grass) weedkilling efficacy grade” value [42] of the same compound?
Answer: 5 (weed kill ratio 90% or more, (practically complete withering))

Question: What about the “G (wild oat) weedkilling efficacy grade” value [43] of the same compound?
Answer: 4 (weed kill ratio 70% or more, less than 90%)

Question: And the “f (beet) effect on crop grade” value [44]?
Answer: 0 (weed kill ratio 5% or less (practically no effect))
